Experimental data from PubChem BioAssay (NCI).
Several values for one entry are separate records, joined by “and”; a condition that tells them apart may be missing. Equal values may be shown once.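 A five-concentration, 48-hour dose response in 96-well plates underlies each endpoint, interpolated linearly between surrounding concentrations. GI50 marks 50% less growth. TGI: total growth inhibition.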

test system: 786-0 renal; test: NCI anticancer screen, dose series, 48 h

| Structure (SMILES) | GI50 | TGI |
| --- | --- | --- |
| O=C1CCCN1c1ccccc1I(=O)=O | > 100 µM | > 100 µM |
| O=C(O)c1cccc(COc2ccc([N+](=O)[O-])cc2Cl)c1 | > 100 µM | > 100 µM |
| Nc1ccccc1C(=O)/C=C/c1c(O)ccc2ccccc12 |  | > 100 µM |
| CCC(C)(O)c1cnc(CC(C)C)c(=O)n1O (centres undefined) |  | > 100 µM |
| CCC1CN2CCc3cc(OC)c(OC)cc3C2CC1CC1c2cc(OC)c(OC)cc2CCN1C(=O)C1CCCN1 (centres undefined) |  | 54.8 µM |
| CC(C(=O)c1ccc(Cl)cc1)/C(=N/NC(=O)NN)C(=O)Nc1cccc(C(F)(F)F)c1 (centres undefined) |  | > 100 µM |
| COc1cc2c(/C=N\N=C(N)N)c[nH]c2cc1C | 19.4 µM | 46.8 µM |
| CCOP(=O)(OCC)C(C(=O)OC)C(=O)C(=O)Nc1ccc(Cl)cc1Cl (centres undefined) |  | > 100 µM |
| Cn1cc(-c2csc(-c3cn(CCCCN4CCCCC4)c4ccccc34)n2)c2cccnc21 | 1.64 µM | 3.05 µM |
| CC(C)=C1CCC(CN(C)C)C1=O (centres undefined) |  | 25.9 µM |
| COc1cccc(/C=N/[N-]C(=O)c2ccncc2)c1[O-].COc1cccc(/C=N/[N-]C(=O)c2ccncc2)c1[O-].[O]=[U](=[O])([OH2+])[OH2+] | 4.37 µM | 48.6 µM |
| ClC(Cl)=C1C(=C(Cl)Cl)C(Cl)(Cl)C1(Cl)Cl |  | 2.81 µM |
| CC(C)(C)c1ccc2c(c1)S(=O)(=O)Nc1ccc(Cl)cc1NS(=O)(=O)c1cc(C(C)(C)C)ccc1OCCOCCOCCO2 |  | > 100 µM |
| O=C1c2ccccc2-c2c1c1ccccc1c(=O)n2CCN1CCNCC1 | 2.88 µM | 12.4 µM |
| Cc1ccc(OCCOCCOCCOCCOc2ccc(C)n(O)c2=S)c(=S)n1O | 0.335 µM | > 100 µM |
| N#CC(=Nc1ccccc1N(C(=O)c1ccccc1)C(=O)c1ccccc1)c1ccccc1 |  | > 100 µM |
| COc1c(C)n(CCO)ccc1=O |  | > 100 µM |
| COC(=O)C(=O)C(C(C)=O)C(=O)NCc1ccc(OC)c(OC)c1 (centres undefined) |  | > 100 µM |
| Nc1c(-c2ccccc2-c2c(N)[n+]([O-])c3ccccc3[n+]2[O-])[n+]([O-])c2ccccc2[n+]1[O-] |  | > 100 µM |
| CCOC(=O)NC(=O)c1cn(C(CC)COC(=O)NCCCCCCNC(=O)OCC(CC)n2cc(C(=O)NC(=O)OCC)c(=O)[nH]c2=O)c(=O)[nH]c1=O (centres undefined) |  | > 100 µM |
| O=C(CC(=O)C1CCOC1=O)C(=O)Nc1cccc(Cl)c1 (centres undefined) |  | > 100 µM |

| Structure (SMILES) | GI50 | TGI |
| --- | --- | --- |
| CCN1c2ccccc2-c2c3c1cc(C)cc3c1ccccc1[n+]2CC |  | 4.22 µM |
| Cc1cccc(C2=C/C(=C(\SS/C(C(=O)c3ccc(OCC(=O)O)c(Cl)c3Cl)=C3\C=C(c4cccc(C)c4)SS3)C(=O)c3ccc(OCC(=O)O)c(Cl)c3Cl)SS2)c1 |  | 41.7 µM |
| CC(=O)N1CCN(c2ccc(OCC3COC(Cn4ccnc4)(c4ccc(Cl)cc4Cl)O3)cc2)CC1 (centres undefined) |  | > 100 µM |
| O=C(Cc1nc2c3c(ccc2[nH]c1=O)C(=O)c1ccccc1C3=O)C(=O)Nc1ccccc1[N+](=O)[O-] |  | 34.4 µM |
| CC1=C(C#N)C(=O)CC(c2ccc(Cl)cc2)N(C)N1 (centres undefined) |  | > 100 µM |
| Nc1nc(-c2ccc(Cl)c([N+](=O)[O-])c2)cs1 |  | > 100 µM |
| COc1cc(/C=C2\[C@H]3c4c(c(OC)c(C)c(OC)c4OC)CC(C(=O)N2Cc2ccccc2)N3C)c(OC)c(C)c1OC |  | 40.6 µM |
| CN(C)C(=S)SSC(=S)N(C)C | 18.2 µM and 35.2 µM and 17.3 µM | 33.4 µM and > 80.9 µM and 36.5 µM |
| COc1ccc(C(CC(=O)c2ccc3c(c2)OCO3)c2c(O)c3ccccc3oc2=O)cc1OC (centres undefined) |  | > 100 µM |
| O=C(N/C(=C\c1ccc([N+](=O)[O-])cc1)c1nc2ccccc2[nH]1)c1ccccc1 |  | > 100 µM |
| COC(=O)/C([Se]c1c(C)cc(C)cc1C)=C(/[Se]c1c(C)cc(C)cc1C)C(=O)OC |  | > 100 µM |
| NC(=O)C(=O)CC(=O)c1ccccc1NC1=CC(=O)C(=O)c2ccccc21 |  | > 100 µM |
| Cc1cc2c(c(C(N)=O)c1C)-c1ccccc1C2=O |  | > 100 µM |
| CCCC(=O)C1=C(O)C(Cc2c(O)c(C)c(O)c(C(=O)CCC)c2O)=C(O)C(C)(C)C1=O |  | > 50 µM |
| COC(=O)/C(=N/O)C(C(=O)C=C(C)C)C(=O)C(=O)Nc1nc2ccc([N+](=O)[O-])cc2s1 (centres undefined) |  | > 100 µM |
| Cc1ccccc1C1=[N+]([O-])c2ccc(Cl)cc2C1=O |  | 32.9 µM |
| c1coc(-c2c3ccc(=[N+]4CCCCC4)cc-3oc3cc(N4CCCCC4)ccc23)c1 | 0.0455 µM | 0.424 µM |
| Cc1[nH]c2ccccc2c1C1Cc2ccccc2N1C(=O)C#Cc1ccc([N+](=O)[O-])cc1 (centres undefined) |  | > 100 µM |
| CCC/C=C/C=C/C1CC(O)C(O)C(=O)C1CO (centres undefined) |  | > 100 µM |
| CCOC(=O)NC(=O)c1cn(C2CCCCC2)c(=O)[nH]c1=O |  | > 100 µM |
| Cn1c(=O)nc2n(-c3cc(C(F)(F)F)cc(C(F)(F)F)c3)c3ccccc3nc-2c1=O |  | > 100 µM |

test system: HOP-62 NSCLC; test: NCI anticancer screen, dose series, 48 h

| Structure (SMILES) | GI50 [nM] | TGI |
| --- | --- | --- |
| O=C(O)c1cccc(COc2ccc([N+](=O)[O-])cc2Cl)c1 | > 100000 | > 100 µM |
| Nc1ccccc1C(=O)/C=C/c1c(O)ccc2ccccc12 |  | > 100 µM |
| CCC(C)(O)c1cnc(CC(C)C)c(=O)n1O (centres undefined) |  | > 100 µM |
| CCC1CN2CCc3cc(OC)c(OC)cc3C2CC1CC1c2cc(OC)c(OC)cc2CCN1C(=O)C1CCCN1 (centres undefined) |  | 71.2 µM |
| CCOP(=O)(OCC)C(C(=O)OC)C(=O)C(=O)Nc1ccc(Cl)cc1Cl (centres undefined) |  | > 100 µM |
| Cn1cc(-c2csc(-c3cn(CCCCN4CCCCC4)c4ccccc34)n2)c2cccnc21 | 1600 | 3.19 µM |
| COc1cccc(/C=N/[N-]C(=O)c2ccncc2)c1[O-].COc1cccc(/C=N/[N-]C(=O)c2ccncc2)c1[O-].[O]=[U](=[O])([OH2+])[OH2+] | 3710 | 24.9 µM |
| ClC(Cl)=C1C(=C(Cl)Cl)C(Cl)(Cl)C1(Cl)Cl |  | 22.1 µM |
| CC(C)(C)c1ccc2c(c1)S(=O)(=O)Nc1ccc(Cl)cc1NS(=O)(=O)c1cc(C(C)(C)C)ccc1OCCOCCOCCO2 |  | > 100 µM |
| O=C1c2ccccc2-c2c1c1ccccc1c(=O)n2CCN1CCNCC1 | 1920 | 6.27 µM |
| Cc1ccc(OCCOCCOCCOCCOc2ccc(C)n(O)c2=S)c(=S)n1O | 184 | > 100 µM |
| N#CC(=Nc1ccccc1N(C(=O)c1ccccc1)C(=O)c1ccccc1)c1ccccc1 |  | > 100 µM |
| COc1c(C)n(CCO)ccc1=O |  | > 100 µM |
| COC(=O)C(=O)C(C(C)=O)C(=O)NCc1ccc(OC)c(OC)c1 (centres undefined) |  | > 100 µM |
| CCOC(=O)NC(=O)c1cn(C(CC)COC(=O)NCCCCCCNC(=O)OCC(CC)n2cc(C(=O)NC(=O)OCC)c(=O)[nH]c2=O)c(=O)[nH]c1=O (centres undefined) |  | > 100 µM |
| O=C(CC(=O)C1CCOC1=O)C(=O)Nc1cccc(Cl)c1 (centres undefined) |  | > 100 µM |
| CCN1c2ccccc2-c2c3c1cc(C)cc3c1ccccc1[n+]2CC |  | 5.15 µM |
| Cc1cccc(C2=C/C(=C(\SS/C(C(=O)c3ccc(OCC(=O)O)c(Cl)c3Cl)=C3\C=C(c4cccc(C)c4)SS3)C(=O)c3ccc(OCC(=O)O)c(Cl)c3Cl)SS2)c1 |  | > 100 µM |

| Structure (SMILES) | GI50 [nM] | TGI |
| --- | --- | --- |
| CC(=O)N1CCN(c2ccc(OCC3COC(Cn4ccnc4)(c4ccc(Cl)cc4Cl)O3)cc2)CC1 (centres undefined) |  | > 100 µM |
| O=C(Cc1nc2c3c(ccc2[nH]c1=O)C(=O)c1ccccc1C3=O)C(=O)Nc1ccccc1[N+](=O)[O-] |  | 39.2 µM |
| CC1=C(C#N)C(=O)CC(c2ccc(Cl)cc2)N(C)N1 (centres undefined) |  | > 100 µM |
| Nc1nc(-c2ccc(Cl)c([N+](=O)[O-])c2)cs1 |  | > 100 µM |
| COc1cc(/C=C2\[C@H]3c4c(c(OC)c(C)c(OC)c4OC)CC(C(=O)N2Cc2ccccc2)N3C)c(OC)c(C)c1OC |  | 35.1 µM |
| CN(C)C(=S)SSC(=S)N(C)C | 18000 | 34.8 µM and > 100 µM |
| COc1ccc(C(CC(=O)c2ccc3c(c2)OCO3)c2c(O)c3ccccc3oc2=O)cc1OC (centres undefined) |  | > 100 µM |
| O=C(N/C(=C\c1ccc([N+](=O)[O-])cc1)c1nc2ccccc2[nH]1)c1ccccc1 |  | > 100 µM |
| COC(=O)/C([Se]c1c(C)cc(C)cc1C)=C(/[Se]c1c(C)cc(C)cc1C)C(=O)OC |  | > 100 µM |
| NC(=O)C(=O)CC(=O)c1ccccc1NC1=CC(=O)C(=O)c2ccccc21 |  | > 100 µM |
| Cc1cc2c(c(C(N)=O)c1C)-c1ccccc1C2=O |  | > 100 µM |
| CCCC(=O)C1=C(O)C(Cc2c(O)c(C)c(O)c(C(=O)CCC)c2O)=C(O)C(C)(C)C1=O |  | > 50 µM |
| COC(=O)/C(=N/O)C(C(=O)C=C(C)C)C(=O)C(=O)Nc1nc2ccc([N+](=O)[O-])cc2s1 (centres undefined) |  | > 100 µM |
| Cc1ccccc1C1=[N+]([O-])c2ccc(Cl)cc2C1=O |  | 42.6 µM |
| c1coc(-c2c3ccc(=[N+]4CCCCC4)cc-3oc3cc(N4CCCCC4)ccc23)c1 | 90.5 | 0.435 µM |
| Cc1[nH]c2ccccc2c1C1Cc2ccccc2N1C(=O)C#Cc1ccc([N+](=O)[O-])cc1 (centres undefined) |  | > 100 µM |
| CCOC(=O)NC(=O)c1cn(C2CCCCC2)c(=O)[nH]c1=O |  | > 100 µM |
| Cn1c(=O)nc2n(-c3cc(C(F)(F)F)cc(C(F)(F)F)c3)c3ccccc3nc-2c1=O |  | > 100 µM |

test system: KM12 colon; test: NCI anticancer screen, dose series, 48 h

| Structure (SMILES) | GI50 [µM] | TGI [µM] |
| --- | --- | --- |
| O=C1CCCN1c1ccccc1I(=O)=O | > 100 | > 100 |
| O=C(O)c1cccc(COc2ccc([N+](=O)[O-])cc2Cl)c1 | > 100 | > 100 |
| Nc1ccccc1C(=O)/C=C/c1c(O)ccc2ccccc12 |  | > 100 |
